The results in this text go back to patent US20090226494A1, “PATHOGEN - CONTROLLING PRODUCTS” (priority 2005, published 2009).

Series [1] deals with A431 human skin cell line. The series can be described thus: Hand gel cytotoxicity, SRB assay. Type of series: cell-based. Particulars: 10% concentration (highest), 24 hours. How it is done:
Methods: The human squamous epithelial cell line A431 was cultured in RPMI 1640 medium supplemented with 10% FCS, 2 g/L sodium bicarbonate and 2 mM L-glutamine (complete medium), in 75 cm^2 tissue culture flasks in a humidified incubator at 37° C. with a 5% CO2 in air atmosphere. For the cytotoxicity experiments, A431 cells were plated into the wells of flat-bottom 96 well plates at 5×10^4 cells per well in 200 μl of complete medium and allowed to grow to confluence. On the day of the experiment the depleted culture medium was aspirated and replaced with 100 μl of fresh complete medium. Samples of the hand gels were diluted in complete medium to double the concentrations shown in the Figure and 100 μl of each samples was added to the cells which were then cultured for a further 24 hours. After microscopic examination, the cells were fixed and stained to quantitatively determine cytotoxicity as described below. The sulforhodamine B (SRB) cytotoxicity assay was developed and validated at the National Cancer Institute. […] After washing twice with tap water the remaining stain was dissolved in 10 mM Tris base and the optical density (O.D.) of the wells was measured on a Dynatech Multiplate ELISA reader at 540 nm. The percent cell survival was calculated by dividing the test O.D. by control O.D. and multiplying by 100.

The test system of a further series is MRSA. The series can be described thus: Time kill curves in RPMI-1460 medium. The format is cell-based, Staphylococcus aureus. Particulars: 20 and 150 ppm.
The next series concerns HT-29 cells. Put plainly: Sulforhodamine (SRB) cytotoxicity assay and microscopy. Type of series: cell-based, human. The settings on record: 24 and 48 hours. The source says:
(§1) The three copper-containing antimicrobial solutions—CuPC33, CuAL42 and CuWB50—were provided and each contained 30.43 g/L of copper ion. […] Two human cell lines were used for this example: HT-29, an intestinal epithelial cell line, and U937, a monocytic lymphoma. […] After examination by microscopy the cells were then fixed and stained to quantitatively determine cytotoxicity using a sulforhodamine (SRB) cytotoxicity assay, developed and validated at the National Cancer Institute. […] All test cultures were in triplicate.

The subject of a further series is U937 cells. The series is described as above. Type of series: cell-based, human. Particulars: 24 and 48 hours.
Text: as §1

The next series has as its system ACCB. The settings on record: 40 and 150 ppm.

Regarding `CCO` [ethanol], the “reduction of cell survival / cells killed” value in series [1] is given as “around 50%”.
Regarding `O=S(=O)([O-])[O-].[Cu+2]` [copper sulphate], the figures for the “activity in time kill curves” value in the series with MRSA and in the series on ACCB were “some activity but the bacteria recovered” and “little initial activity but the bacteria recovered”, respectively. Moreover, the cytotoxicity entry in the series on HT-29 cells (1-100 ppm, 5% or 25% FCS) was “not significantly cytotoxic”; in the series on HT-29 cells (1000 ppm), “very toxic”; in the series on U937 cells (1-100 ppm, 5% or 25% FCS) it was “not significantly cytotoxic”; with U937 cells (1000 ppm), “very toxic”.
